Test results: US8604059B2, “Thioxanthene derivatives for the treatment of infectious diseases” (BKG Pharma APS, priority 2009, dated 2013)
Converted amounts (≈) assume the structure as drawn. Where two headings read alike, the source gives them in different places. One block for each compound: values may come before it.

What was measured:
[1] = test system: Multiresistant clinical isolates E. coli; assay: Maximal reversal of resistance and synergistic effect (Table 4c); assay type: cell-based
Protocol: (§1) The maximal obtained reversal of resistance and synergistic effect was tested as previously described.
Strains: Multiresistant clinical isolates E. coli, Ten strains in each group.

[2] = test system: Multiresistant clinical isolates of S. aureus and S. epidermidis; assay: Maximal reversal of resistance and synergistic effect (Table 4b); assay type: cell-based; settings: for MIC: antibiotic alone, median, ten strains in each group; for Fold enhanced, compound 1 0.60 ug/ml: enhancement of antibiotic by compound 1 at 0.60 ug/ml; for Fold enhanced, compound 2 0.98 ug/ml: enhancement of antibiotic by compound 2 at 0.98 ug/ml; for Fold enhanced, compound 3 0.30 ug/ml: enhancement of antibiotic by compound 3 at 0.30 ug/ml; for Fold enhanced, compound 4 0.75 ug/ml: enhancement of antibiotic by compound 4 at 0.75 ug/ml
Protocol: as §1
Strains: Multiresistant clinical isolates of S. aureus and S. epidermidis, Ten strains in each group.

S. epidermidis = assay: MIC, microdilution broth, multiresistant clinical isolates (Table 1A); assay type: cell-based; settings: Staphylococcus epidermidis; ten multiresistant clinical isolates; read-out: Median MIC S. epidermidis
Protocol: (§2) Cell growth was tested using the Minimal Inhibitory Concentration (MIC) susceptibility tests by use of the microdilution broth method in accordance to the NCCLS Guidelines (NCCLS Guidelines, Methods for Dilution Antimicrobial Susceptibility Tests for Bacteria That Grow Aerobically; Approved Standard, Sixth Edition, Volume 23; Number 2). The minimum inhibitory concentration (MIC), is defined as the lowest concentration of drug which inhibits growth of the test organism, in the sense that no visible growth is detected (total inhibition of growth). In example 2, MIC of the compounds used on fungal microorgansims was determined from the IC90 measurements according to NCCLS Guidelines.
(§3) A log phase culture of bacteria was diluted with fresh pre-warmed Mueller-Hinton medium and adjusted to a defined OD at 600 nm in order to give a final concentration of 1×10^4-5 bacteria/ml medium. The bacterial culture was transferred to microtiter-plates and culture was added to each well. […] Trays were incubated at 37° C. by shaking in a robot analyzer, PowerWavex, software KC^4′ Kebo. Lab, Copenhagen, for 16 h and optical densities were measured at 600 nm during the incubation time in order to record growth curves. Wells containing bacterial culture without drug were used as controls to ensure correct inoculum size and bacterial growth during the incubation. Cultures were tested in order to detect contaminations. Each experiment was repeated in triplicate.
(§4) Ten strains in each test group.

E. faecalis = assay: as above; assay type: cell-based; settings: Enterococcus faecalis; ten multiresistant clinical isolates; read-out: Median MIC E. faecalis
Protocol: as §2, §3, §4

E. faecium = assay: as above; assay type: cell-based; settings: Enterococcus faecium; ten multiresistant clinical isolates; read-out: Median MIC E. faecium
Protocol: as §2, §3, §4

S. aureus = assay: as above; assay type: cell-based; settings: Staphylococcus aureus; ten multiresistant clinical isolates; read-out: Median MIC S. aureus
Protocol: as §2, §3, §4

E. coli = assay: as above; assay type: cell-based; settings: Escherichia coli; ten multiresistant clinical isolates; read-out: Median MIC E. coli
Protocol: as §2, §3, §4

[3] = test system: E. faecalis MDR/VRE clinical isolates; assay: FIC index, synergy with antibiotics (Table 4a); assay type: cell-based, Enterococcus faecalis; settings: 8 MDR/VRE E. faecalis, mean, compound at ¼ of MIC
Protocol: (§5) The effect of the compounds was tested according to the methods described in WO2005/105145. In brief, cell growth was tested using the MIC susceptibility tests by use of the microdilution broth method in accordance to the NCCLS Guidelines (NCCLS Guidelines, Methods for Dilution Antimicrobial Susceptibility Tests for Bacteria That Grow Aerobically; Approved Standard, Sixth Edition, Volume 23; Number 2).
(§6) The Fractional Inhibitory Concentration (FIC) index were calculated for each compound as described in WO2005/105145. Synergy was defined for Fractional Inhibitory Concentration (FIC) indices less than 0.5
Enterococcus faecalis: 8 multidrug resistant in vivo-selected clinical isolates. […] Expressing change in the cell wall precursor target as a major resistance mechanism (VanA gene expression).

[4] = test system: E. coli MDR clinical isolates; assay: FIC index, synergy with antibiotics (Table 4a); assay type: cell-based; settings: 8 MDR E. coli, mean, compound at ¼ of MIC
Protocol: as §5, §6
E. coli: 8 in vivo-selected multidrug resistant clinical isolates of E. coli. Resistant to tetracycline, beta-lactams, fluoroquinolones, chloramphenicol and aminoglycoside

[5] = test system: S. aureus MRSA clinical isolates; assay: FIC index, synergy with antibiotics (Table 4a); assay type: cell-based, Staphylococcus aureus; settings: with Dicloxacillin; 8 MRSA; mean; compound at ¼ of MIC
Protocol: as §5, §6
Staphylococcus aureus: 8 (MRSA) in vivo-selected clinical isolates. Resistant to methicillin and beta-lactam antibiotics. Susceptible to teicoplanin chloramphenicol, fosfomycin, netilmicin and vancomycin.

Candida albicans = assay: Synergy with fluconazole, broth microdilution NCCLS M27-A (Table 10); assay type: cell-based; settings: Candida albicans
Protocol: The isolates were subcultured for 24 h on Sabouraud glucose agar before susceptibility testing. Broth microdilution tests were performed according to NCCLS document M27-A (Ref: National Commitee for Clinical Laboratory Standards. (1997). Reference Method for Broth Dilution Antifungal Susceptibility Testing of Yeasts: Approved Standard M27-A. NCCLS, Wayne, Pa.) Microtitre plates were read spectrophotometrically at 530 nm, after mixing the wells by pipetting to resuspend yeast sediments. […] The Fractional Inhibitory Concentration (FIC) was calculated for the anti-infective agent alone and in combination with compound 3 and 4 (see table 4) as described above. Synergy was defined as a FIC index of <0.5.

SMILES: CC1(C)S[C@@H]2[C@H](NC(=O)[C@H](N)c3ccccc3)C(=O)N2[C@H]1C(=O)O [Ampicillin]
MIC ([1]; Escherichia coli, antibiotic alone, median, ten strains): 32 µg/mL
Fold enhanced, compound 1 1.0 ug/ml ([1]; enhancement of antibiotic by compound 1 at 1.0 ug/ml): 8
Fold enhanced, compound 2 2.0 ug/ml ([1]; enhancement of antibiotic by compound 2 at 2.0 ug/ml): 4
Fold enhanced, compound 3 0.6 ug/ml ([1]; enhancement of antibiotic by compound 3 at 0.6 ug/ml): 16
MIC [2]: 16 µg/mL
Fold enhanced, compound 1 0.60 ug/ml [2]: 4 (4)
Fold enhanced, compound 2 0.98 ug/ml [2]: 4 (4)
Fold enhanced, compound 3 0.30 ug/ml [2]: 8
Fold enhanced, compound 4 0.75 ug/ml [2]: 4 (4)

SMILES: CC1(C)S[C@@H]2[C@H](NC(=O)Cc3ccccc3)C(=O)N2[C@H]1C(=O)O [Benzylpenicillin]
MIC [2]: 64 µg/mL
Fold enhanced, compound 1 0.60 ug/ml [2]: 8 (8)
Fold enhanced, compound 2 0.98 ug/ml [2]: 8 (8)
Fold enhanced, compound 3 0.30 ug/ml [2]: 16
Fold enhanced, compound 4 0.75 ug/ml [2]: 8 (8)

SMILES: CC[C@H]1OC(=O)[C@H](C)[C@@H](O[C@H]2C[C@@](C)(OC)[C@@H](O)[C@H](C)O2)[C@H](C)[C@@H](O[C@@H]2O[C@H](C)C[C@H](N(C)C)[C@H]2O)[C@](C)(O)C[C@@H](C)C(=O)[C@H](C)[C@@H](O)[C@]1(C)O [Erythromycin]
MIC [2]: 16 µg/mL
Fold enhanced, compound 1 0.60 ug/ml [2]: 4 (4)
Fold enhanced, compound 2 0.98 ug/ml [2]: 4 (4)
Fold enhanced, compound 3 0.30 ug/ml [2]: 8
Fold enhanced, compound 4 0.75 ug/ml [2]: 4 (4)

Continued, in another order:

MIC (S. epidermidis): 2.4 µg/mL (≈ 6.72 µM)
MIC (E. faecalis): 0.6 µg/mL (≈ 1.68 µM)
MIC (E. faecium): 0.6 µg/mL (≈ 1.68 µM)
MIC (S. aureus): 3.6 µg/mL (≈ 10.1 µM)
MIC (E. coli): 6 µg/mL (≈ 16.8 µM)
SMILES: Clc1ccc2c(c1)/C(=C/CCN1CCNCC1)c1ccccc1S2 [Compound 1, N-dealkyl-transclopenthixol]
Maximal reversal of resistance: concentration of compound ([1]; E. coli multiresistant isolates): 1.0 µg/mL
FIC index ([3]; with Ciprofloxacin): 0.28
FIC index ([3]; with Dicloxacillin): 0.28
FIC index ([4]; with Ampicillin): 0.47
FIC index ([4]; with Ciprofloxacin): 0.47
FIC index ([4]; with Gentamycin): 0.47
FIC index ([4]; with Tetracycline): 0.47
FIC index [5]: 0.28

MIC (Candida albicans; Table 10A, fluconazole in presence of compound 3 at 0.25 μg/ml, read-out: MIC FL + comp 3 (0.25 μg/m1)): 4 µg/mL
MIC (Candida albicans; Table 10B (compound 4), fluconazole in presence of compound at 0.50 μg/ml, read-out: MIC FL + comp 3 (0.50 μg/ml)): 8 µg/mL
MIC (Candida albicans; read-out: MIC Fluconazole (FL)): 128 µg/mL
SMILES: OC(Cn1cncn1)(Cn1cncn1)c1ccc(F)cc1F [Fluconazole]
